Test [1] concerns the target T1, Retinal dehydrogenase 2 (Gallus gallus, UniProt O93344).
T1 sequence (O93344 whole entry): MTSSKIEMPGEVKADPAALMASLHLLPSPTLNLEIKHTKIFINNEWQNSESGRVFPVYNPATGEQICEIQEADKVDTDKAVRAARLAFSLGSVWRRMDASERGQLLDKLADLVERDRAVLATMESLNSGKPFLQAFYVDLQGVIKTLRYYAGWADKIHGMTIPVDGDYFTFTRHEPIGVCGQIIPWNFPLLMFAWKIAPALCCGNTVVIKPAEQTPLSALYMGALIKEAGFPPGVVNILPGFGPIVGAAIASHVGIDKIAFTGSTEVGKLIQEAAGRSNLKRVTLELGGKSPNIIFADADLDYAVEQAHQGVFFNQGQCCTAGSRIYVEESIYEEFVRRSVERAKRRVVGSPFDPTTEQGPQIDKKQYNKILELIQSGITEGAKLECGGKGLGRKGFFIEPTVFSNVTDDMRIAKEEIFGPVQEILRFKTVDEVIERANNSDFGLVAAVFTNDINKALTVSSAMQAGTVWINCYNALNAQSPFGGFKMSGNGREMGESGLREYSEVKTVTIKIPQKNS
As to the kind of experiment: Inhibition of RALDH2 in living intact choroid isolated from 4 day recovering chick eyes assessed as inhibition of ATRA synthesis after 24 hrs in presence of […].

The target in test [2] is T2, Retinal dehydrogenase 2 (Gallus gallus) (UniProt O93344).
T2 sequence (whole entry): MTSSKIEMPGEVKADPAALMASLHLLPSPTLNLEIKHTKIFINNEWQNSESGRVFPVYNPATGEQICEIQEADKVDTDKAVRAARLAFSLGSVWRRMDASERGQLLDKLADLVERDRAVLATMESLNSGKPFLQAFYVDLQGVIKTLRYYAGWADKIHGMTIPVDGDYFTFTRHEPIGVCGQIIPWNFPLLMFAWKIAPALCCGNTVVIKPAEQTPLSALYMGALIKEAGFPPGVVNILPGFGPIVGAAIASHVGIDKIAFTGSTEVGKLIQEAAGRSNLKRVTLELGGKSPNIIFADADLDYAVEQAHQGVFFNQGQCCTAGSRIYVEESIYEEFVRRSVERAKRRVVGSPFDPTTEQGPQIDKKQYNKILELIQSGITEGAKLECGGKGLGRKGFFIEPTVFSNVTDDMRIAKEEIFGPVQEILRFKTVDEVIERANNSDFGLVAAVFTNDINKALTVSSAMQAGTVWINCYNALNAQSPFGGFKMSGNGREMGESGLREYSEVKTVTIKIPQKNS
The experiment in a line: Inhibition of RALDH2 in living intact choroid isolated from 4 day recovering chick eyes assessed as inhibition of ATRA synthesis at 10 uM after 24 hrs in presence of […].

Test [3] concerns the target T2, Retinal dehydrogenase 2 (Gallus gallus). The experiment in a line: Inhibition of RALDH2 in living intact choroid isolated from 4 day recovering chick eyes assessed as inhibition of ATRA synthesis at 0.1 uM after 24 hrs in presence of […].
The target is the same in test [4]. The experiment in a line: Inhibition of RALDH2 in living intact choroid isolated from normal chick eyes assessed as inhibition of ATRA synthesis after 24 hrs in presence of retinaldehyde and NAD+.
For test [5], the target named is T3, Aldehyde dehydrogenase, mitochondrial (Homo sapiens, UniProt P05091).
T3 sequence (P05091 whole entry): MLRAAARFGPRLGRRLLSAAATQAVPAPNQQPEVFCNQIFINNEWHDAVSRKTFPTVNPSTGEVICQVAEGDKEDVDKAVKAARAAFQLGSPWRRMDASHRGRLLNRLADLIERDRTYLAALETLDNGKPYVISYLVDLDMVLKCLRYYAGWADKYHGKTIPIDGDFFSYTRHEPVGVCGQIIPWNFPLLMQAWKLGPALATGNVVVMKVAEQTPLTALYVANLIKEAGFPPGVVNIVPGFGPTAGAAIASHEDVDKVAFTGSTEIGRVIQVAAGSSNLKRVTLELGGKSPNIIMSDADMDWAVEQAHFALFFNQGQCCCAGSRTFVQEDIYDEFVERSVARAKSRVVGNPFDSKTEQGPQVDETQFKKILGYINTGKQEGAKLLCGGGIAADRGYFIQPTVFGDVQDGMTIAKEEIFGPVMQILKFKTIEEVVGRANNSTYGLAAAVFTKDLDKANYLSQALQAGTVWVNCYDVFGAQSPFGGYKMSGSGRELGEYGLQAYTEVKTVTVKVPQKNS
As to the kind of experiment: Inhibition of N-terminal His6-tagged recombinant human mitochondrial ALDH2 using propionaldehyde as substrate preincubated for 20 mins to 1 hr followed by substrate addition and measured for 5 mins in presence of NADH by spectrophotometric assay. The settings on record: read-out: IC50.

Test [6] has as its target T2, Retinal dehydrogenase 2 (Gallus gallus). As to the kind of experiment: Inhibition of RALDH2 in living intact choroid isolated from 4 day recovering chick eyes assessed as inhibition of ATRA synthesis at 1 uM after 24 hrs in presence of […].

Activity calls are given as the source filed them. The calls are words filed in the database; no cut-off is given here.

As to `O=C(NCCCCCCCCNC(=O)C(Cl)Cl)C(Cl)Cl`, in test [1], the EC50 came to 44.5 nM. Also, the figures for the inhibition in test [2], in test [3] and in test [6] were 76%, 40% and 51%, respectively. Moreover, the inhibition result in test [4] was “inactive”. The IC50 in test [5] was found to be 229 nM.

Values taken from ChEMBL document CHEMBL4261642, “Design, synthesis, and ex vivo evaluation of a selective inhibitor for retinaldehyde dehydrogenase enzymes” (Bioorg Med Chem, 2018).
